Test results reported in US20080176902A1, “Salt III” (ASTRAZENECA AB, priority 2005, published 2008).

Target: T1, recombinant human CCR1 (Homo sapiens, UniProt P32246)
T1 construct: expressed in transfected cells; membranes prepared from them
T1 sequence (P32246 1-355): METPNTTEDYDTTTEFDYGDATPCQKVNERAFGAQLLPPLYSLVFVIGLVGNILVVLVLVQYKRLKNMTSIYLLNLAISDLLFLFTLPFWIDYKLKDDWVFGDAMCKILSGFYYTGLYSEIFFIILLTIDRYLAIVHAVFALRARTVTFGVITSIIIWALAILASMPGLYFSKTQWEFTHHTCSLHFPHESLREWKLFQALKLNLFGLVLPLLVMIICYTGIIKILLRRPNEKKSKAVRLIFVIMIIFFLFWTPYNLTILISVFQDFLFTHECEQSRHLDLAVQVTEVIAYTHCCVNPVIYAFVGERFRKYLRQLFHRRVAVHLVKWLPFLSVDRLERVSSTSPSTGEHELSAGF
Test: Human CCR1 binding assay ([125I] MIP-1α displacement, HEK-CCR1 membranes)
Details: HEK293 membranes expressing recombinant human CCR1; 33 pM [125I] MIP-1α
Description: HEK293 cells, from ECACC, stably expressing recombinant human CCR1 (HEK-CCR1) were used to prepare cell membranes containing CCR1. The membranes were stored at −70° C. The concentration of membranes of each batch was adjusted to 10% specific binding of 33 pM [^125I] MIP-1α.
100 μL of HEK-CCR1 membranes diluted in assay buffer pH 7.4 (137 mM NaCl (Merck, Cat No 1.06404), 5.7 mM Glucose (Sigma, Cat No G5400), 2.7 mM KCl (Sigma, Cat No P-9333), 0.36 mM NaH2PO4×H2O (Merck, Cat No 1.06346), 10 mM HEPES (Sigma, Cat No H3375), 0.1% (w/v) Gelatine (Sigma, Cat No G2625)) with the addition of 17500 units/L Bacitracin (Sigma, Cat No B1025) were added to each well of the 96 well filter plate (0.45 μm opaque Millipore cat no MHVB N4550). […] 12 μl assay buffer with 10% DMSO was added to certain wells (without compound) to detect maximal binding (B0).
12 μL [^125I] MIP-1α, diluted in assay buffer to a final concentration in the wells of 33 pM, was added to all wells. The plates with lid were then incubated for 1.5 hrs at room temperature. After incubation the wells were emptied by vacuum filtration (MultiScreen Resist Vacuum Manifold system, Millipore) and washed once with 200 μl assay buffer. After the wash, all wells received an addition of 50 μL of scintillation fluid (OptiPhase “Supermix”, Wallac Oy, Turko, Finland). Bound [^125I] MIP-1: was measured using a Wallac Trilux 1450 MicroBeta counter. […]

In the case of CC(=O)Nc1ccc(O)cc1OC[C@@](C)(O)CNC1CCN(Cc2ccc(Cl)cc2)CC1 [N-{2-[((2S)-3-{[1-(4-chlorobenzyl)piperidin-4-yl]amino}-2-hydroxy-2-methylpropyl)oxy]-4-hydroxyphenyl}acetamide ditrifluoroacetate], the IC50 is reported as under 0.05 µM.
